Measurements published in patent publication US12194057B2, “NXTAR-derived oligonucleotides and uses thereof” (Washington University, priority 2020, dated 2025).
Oligonucleotides are written 5' to 3', each unit as a sugar letter and its base; * is a phosphorothioate linkage, no mark a phosphodiester; rarer units and linkages stand in square brackets, end groups in braces. Plain capitals give the bases only. d = 2'-deoxy (DNA)

Columns and labels:
AR = test: qRT-PCR of AR and AR target gene expression in prostate cancer cells; type: cell-based, human
Method: (§1) NXTAR-N5 oligonucleotide was synthesized by IDT, and the oligonucleotide sequence is provided in TABLE 1 and FIG. 7C (* represents phosphorothioate bond modifications to avoid degradation by exonucleases). Equal numbers of VCaP and 22Rv1 cells were transfected with NXTAR-N5 or globin-derived oligonucleotide using X-tremeGENE360 (Sigma-Aldrich, Cat #08724121001), and the number of live cells was counted 96 h post-transfection using trypan blue exclusion method (Sigma, Cat #T8154). RNA was prepared from these cells, and qRT-PCR [SYBR PremixEx Taq II (Tli RNase H Plus)ROX, Clontech Takara, Cat #RR82LR] for AR and AR-V7 was performed as described earlier (see e.g., Mahajan et al. (2017) Cancer Cell).
(§2) Cells were transfected, infected or treated [(R)-9b; EPZ6438, TargetMol, Cat #T1788] accordingly. RNA was used for cDNA preparation using High-Capacity cDNA Reverse Transcription Kit (Thermo Scientific Cat #4368814). Resulting cDNA was then analyzed by qPCR using an Applied Biosystems 7900 Real-Time PCR System (Thermo Scientific) and SYBR Green PCR Master Mix [SYBR PremixEx Taq II (Tli RNase H Plus) ROX, Clontech Takara, Cat #RR82LR] according to the manufacturers' instructions. Dissociation curves were generated for each plate to verify the integrity of the primers. The relative expression of RNAs was calculated using the comparative Ct or standard curve method. 18S rRNA or actin were used as internal controls.

NXTAR = test: qRT-PCR of NXTAR expression in prostate cancer cell lines; type: cell-based, human
Method: as §2

VCaP and 22Rv1 cells = test: Proliferation assay, viable cells by trypan blue exclusion; type: cell-based, human
Method: as §1
The 22Rv1, VCaP, or LNCaP cells were retrovirally infected with control or NXTAR vectors and selected in puromycin medium containing 5% charcoal-stripped serum. Equal numbers of selected cells were seeded in 6-well plates followed by treatment with either (R)-9b, enzalutamide (Selleck Chemicals, Cat #S1250), or abiraterone (Selleck Chemicals, Cat #52246), and the number of viable cells was counted by trypan blue exclusion assay.

AR promoter = test: ChIP-qPCR (EZH2, H3K27me3) at AR promoter; type: cell-based, human; conditions: VCaP cells transfected with oligo, ChIP
Method: (§3) Chromatin immunoprecipitation (ChIP), quantitative RT-PCR, and ChIP-qPCR were performed as described earlier (see e.g., Mahajan et al. (2017) Cancer Cell; Mahajan et al. (2012) J Biol Chem; and Mahajan et al. (2012) Nat Struct Mol Bio). Briefly, cells were either transfected, infected or treated with various inhibitors (R)-9b; CPTH2 (Sigma, Cat #C9873)], fixed in formaldehyde, lysed and ChIP was performed with antibodies recognizing AR (SCBT, sc-7305; RRID:AB_626671), GCN5 (SCBT, SC-365321; RRID:AB_10846182), H3K14ac (CST, 7627S; RRID:AB_10839410), H3K27me3 (CST, 9733S; RRID:AB 2616029), NCOR1 (Bethyl Laboratories, Cat #A301-145A; RRID:AB_873085), EZH2 (CST, 5246S; RRID:AB_10694683), or IgG (Abcam, ab2410; RRID:AB_303052), immobilized on Protein A magnetic beads (Biorad, Cat #161-4013). The complexes were washed with ChIP buffers, eluted with elution buffer (Active Motif, Cat #53008), and subjected to reverse crosslinking, followed by RNase and proteinase K treatments. A part of soluble chromatin was processed separately at the same time and designated as input DNA. Treated ChIP DNA and input DNAs were purified using PCR-DNA purification columns (Qiagen, Cat #28106). The amount of immunoprecipitated DNA was determined by real-time PCR.

AR-V7 = test: qRT-PCR of AR-V7 expression in prostate cancer cells; type: cell-based, human; conditions: VCaP and 22Rv1 cells transfected with oligonucleotide
Method: as §1
as §2, with “18S rRNA or actin were used as internal controls.” left out

upstream of AR = test: ChIRP with biotin-labeled oligos and VCaP lysate, qPCR with AR Up1.1 primers; type: binding, human; conditions: biotinylated oligo on streptavidin beads, VCaP lysate, qPCR AR Up1.1
Method: (§4) Biotin-labeled NXTAR-N5 (complementary to the AR promoter) and globin oligos were synthesized (IDT) (see e.g., TABLE 1). ChIRP was performed using lysate from formaldehyde-fixed VCaP cells and oligos that were immobilized to streptavidin beads, as described earlier (see e.g., Chu and Chang (2016) Methods Mol Bio). The amount of the chromatin DNA was determined by real-time PCR. For detection of NXTAR-N5/EZH2 binding, biotin-labeled NXTAR-N5 oligo and control globin oligo were incubated with VCaP cell lysates and were subjected to chromatin pull-down, followed by immunoblotting with EZH2 antibodies.

EZH2 = target: T1, EZH2 (Homo sapiens, UniProt Q15910); test: Pull-down from VCaP cell lysates with biotinylated oligos, immunoblotting for EZH2; type: binding; conditions: VCaP cell lysate, chromatin pull-down
T1 construct: endogenous in cells; host or cells: VCaP cells (some retrovirally infected to over-express NXTAR lncRNA)
T1 sequence (Q15910 whole entry): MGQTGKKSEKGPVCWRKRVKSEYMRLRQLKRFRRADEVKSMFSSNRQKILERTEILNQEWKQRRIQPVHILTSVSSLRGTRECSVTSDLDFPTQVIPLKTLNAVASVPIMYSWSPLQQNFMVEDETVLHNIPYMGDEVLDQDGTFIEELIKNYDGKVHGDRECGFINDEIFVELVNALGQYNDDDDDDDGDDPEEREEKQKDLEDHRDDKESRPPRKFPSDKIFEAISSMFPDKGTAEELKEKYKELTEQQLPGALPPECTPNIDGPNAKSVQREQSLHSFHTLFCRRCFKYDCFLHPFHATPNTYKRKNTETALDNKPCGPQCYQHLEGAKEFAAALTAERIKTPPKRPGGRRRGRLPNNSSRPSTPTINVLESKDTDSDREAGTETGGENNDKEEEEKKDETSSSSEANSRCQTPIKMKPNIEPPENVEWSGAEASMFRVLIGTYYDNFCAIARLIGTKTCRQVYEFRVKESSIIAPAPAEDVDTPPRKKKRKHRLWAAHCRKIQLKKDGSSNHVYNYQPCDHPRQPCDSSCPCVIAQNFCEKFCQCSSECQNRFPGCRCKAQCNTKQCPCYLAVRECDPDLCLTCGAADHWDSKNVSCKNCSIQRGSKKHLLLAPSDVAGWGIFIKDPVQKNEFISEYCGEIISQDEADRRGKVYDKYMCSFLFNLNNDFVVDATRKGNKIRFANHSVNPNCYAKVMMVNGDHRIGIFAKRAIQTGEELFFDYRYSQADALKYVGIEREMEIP
T1 sequence (O75530 whole entry partner): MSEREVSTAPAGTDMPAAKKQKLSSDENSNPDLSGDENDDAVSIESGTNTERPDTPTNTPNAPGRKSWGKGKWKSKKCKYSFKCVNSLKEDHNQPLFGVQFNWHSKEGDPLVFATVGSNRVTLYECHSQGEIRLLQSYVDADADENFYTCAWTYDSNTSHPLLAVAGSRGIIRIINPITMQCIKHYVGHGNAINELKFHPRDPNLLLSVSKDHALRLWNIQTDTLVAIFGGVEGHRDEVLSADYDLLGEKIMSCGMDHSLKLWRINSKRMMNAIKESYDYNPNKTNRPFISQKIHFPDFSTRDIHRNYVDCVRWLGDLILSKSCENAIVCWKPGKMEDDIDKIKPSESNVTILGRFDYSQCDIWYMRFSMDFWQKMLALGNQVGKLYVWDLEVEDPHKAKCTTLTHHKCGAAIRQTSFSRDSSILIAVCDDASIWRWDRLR
T1 sequence (Q15022 whole entry partner): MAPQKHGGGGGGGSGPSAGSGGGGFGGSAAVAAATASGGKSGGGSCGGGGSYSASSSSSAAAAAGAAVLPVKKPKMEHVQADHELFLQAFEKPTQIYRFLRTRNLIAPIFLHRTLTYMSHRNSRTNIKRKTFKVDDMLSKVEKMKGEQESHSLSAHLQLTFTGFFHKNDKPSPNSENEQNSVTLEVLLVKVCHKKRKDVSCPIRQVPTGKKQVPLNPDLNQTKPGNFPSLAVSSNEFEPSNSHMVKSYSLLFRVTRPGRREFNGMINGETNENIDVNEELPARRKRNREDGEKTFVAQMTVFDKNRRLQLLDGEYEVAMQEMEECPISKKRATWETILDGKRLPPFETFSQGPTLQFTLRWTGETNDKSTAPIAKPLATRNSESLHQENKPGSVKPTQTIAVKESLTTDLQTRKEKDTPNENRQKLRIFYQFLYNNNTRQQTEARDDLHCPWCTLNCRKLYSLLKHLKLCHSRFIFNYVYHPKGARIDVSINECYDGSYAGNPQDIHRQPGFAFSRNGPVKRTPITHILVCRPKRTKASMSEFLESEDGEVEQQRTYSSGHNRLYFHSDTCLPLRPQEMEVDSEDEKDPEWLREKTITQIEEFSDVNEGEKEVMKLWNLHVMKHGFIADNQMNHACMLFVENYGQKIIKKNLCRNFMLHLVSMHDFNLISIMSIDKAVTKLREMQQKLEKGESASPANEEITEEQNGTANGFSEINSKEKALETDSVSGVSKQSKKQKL
T1 sequence (Q09028 whole entry partner): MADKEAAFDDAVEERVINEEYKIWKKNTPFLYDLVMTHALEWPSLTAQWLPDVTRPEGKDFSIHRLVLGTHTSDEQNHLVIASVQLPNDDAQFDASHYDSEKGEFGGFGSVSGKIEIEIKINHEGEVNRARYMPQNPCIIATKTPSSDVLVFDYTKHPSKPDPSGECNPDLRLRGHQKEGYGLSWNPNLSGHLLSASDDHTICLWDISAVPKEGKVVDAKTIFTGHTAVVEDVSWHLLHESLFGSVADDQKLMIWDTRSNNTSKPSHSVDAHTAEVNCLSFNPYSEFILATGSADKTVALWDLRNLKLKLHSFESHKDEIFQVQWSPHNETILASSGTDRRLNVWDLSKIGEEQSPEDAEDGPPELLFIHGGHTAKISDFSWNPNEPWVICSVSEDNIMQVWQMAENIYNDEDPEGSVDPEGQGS
Method: The biotinylated oligonucleotides were incubated with lysates (2 h), and the lysates were incubated with streptavidin magnetic beads overnight. Beads attached to RNAs were divided equally and processed for either RNA isolation or western blotting. For RNA isolation, beads were washed three times and then separated using proteinase K treatment. RNA was then isolated and purified, and DNA was digested in the process. The real-time quantitative RT-PCR was performed on isolated RNA to check the efficiency of pull-down of NXTAR RNA. The remaining beads were heated at 80° C. for 5 min in loading buffer, followed by western blotting. The blots were probed with EZH2 (CST, 5246S; RRID:AB_10694683) antibody and Actin (SCBT, sc-47778; RRID:AB_2714189) was used as the loading control.
as §4

purified EZH2 = target: T2, purified EZH2 (Homo sapiens, UniProt Q15910); test: EZH2 pull-down assay with purified 6xHis-tagged EZH2; type: binding; conditions: pull-down, immunoblotting
T2 construct: made in house
T2 sequence (Q15910 whole entry): as the sequence (Q15910 whole entry) above
Method: 1 mg of lysate prepared from HEK293 cells transfected with 6λHis-tagged-EZH2 plasmid was incubated with Ni-NTA agarose beads (Qiagene) overnight at 4° C. Beads were washed three times using wash buffer (20 mM Tris/HCl, 200 mM NaCl, 5 mM imidazole; pH 7.5) and purified EZH2 was eluted using elution buffer (20 mM Tris/HCl, 200 mM NaCl, 200 mM imidazole; pH 7.5).
LncRNA-Protein binding study was performed as described earlier (see e.g., Zhao, Wang, and Hu (2021) Methods Mol Bio). Briefly, 10 pmol Biotinylated NXTAR-N5 oligo or Biotinylated Globin oligos were diluted in 40 ul RNA structure buffer, heated at 90° C. for 2 min, immediately transferred onto ice for 2 min and then kept at RT for further 20 mins. 10 uM of purified EZH2 protein was added to these biotinylated oligos with 500 ul of NETN buffer and the tubes were placed at 4° C. for 2 hrs. Post washing with cold NETN buffer, streptavidin magnetic beads (60 ul) were added into prepared oligo-protein mix and incubated at 4° C. overnight. Beads were washed 3 times with NETN buffer, followed by western blot analysis. […]

NXTAR promoter = test: ChIP-qPCR at NXTAR promoter (Ppr3, Ppr4), IRF8 binding site and NXTAR enhancer; type: cell-based, human; conditions: 22Rv1 and LNCaP cells, (R)-9b combined with CPTH2
Method: as §3

[1] = Enzalutamide-resistant VCaP cells, 7 μM enzalutamide, 96 h

Question: How did the AR expression (AR; VCaP cells infected with NXTAR construct, EPZ6438 1 μM overnight) turn out when CCN(c1cc(-c2ccc(CN3CCOCC3)cc2)cc(C(=O)NCc2c(C)cc(C)[nH]c2=O)c1C)C1CCOCC1 [EPZ6438, reference compound] was run?
Answer: restored the AR expression

Question: With CNC(=O)c1ccc(N2C(=S)N(c3ccc(C#N)c(C(F)(F)F)c3)C(=O)C2(C)C)cc1F [enzalutamide, reference compound] as the molecule, how does the NXTAR levels (NXTAR; [1]) read?
Answer: no change in NXTAR levels

Question: And the “proliferation (number of viable cells)” value (VCaP and 22Rv1 cells; VCaP (9 days) and 22Rv1 (5 days) cells, androgen-deprived, drug treatment)?
Answer: did not result in a significant decrease in proliferation

Question: And the AR levels (AR; [1])?
Answer: marginal decrease in AR levels

Question: Which “histone H3K27 methylation in the AR promoter region (−0.7 kb)” value (AR promoter) does the source give for “NXTAR-N5: 60-mer oligonucleotide, nt 511-570 of SEQ ID NO: 58, terminal phosphorothioate bonds (SEQ ID NO: 1) (DNA dA*dT*dT*dAdTdTdAdTdTdTdTdAdAdAdTdTdTdAdCdAdGdAdAdGdGdGdGdAdAdAdCdTdAdAdGdAdAdTdTdAdTdAdGdAdCdAdTdGdAdAdGdTdGdAdCdTdC*dA*dC*dC)” here?
Answer: induced histone H3K27 methylation

Question: And the “proliferation (live cells)” value (VCaP and 22Rv1 cells; VCaP and 22Rv1 cells, 96 h post-transfection)?
Answer: compromised proliferation

Question: And the AR transcription (AR; VCaP and 22Rv1 cells transfected with oligonucleotide)?
Answer: significant decrease

Question: What about the AR expression (AR; transfection of oligos, prostate and other cancer cell lines) of the same molecule?
Answer: highly effective

Question: And the AR-V7 transcription (AR-V7)?
Answer: significant decrease

Question: And the “binding upstream of AR” value (upstream of AR)?
Answer: bound upstream of AR

Question: And the “interaction with EZH2” value (EZH2)?
Answer: interaction with EZH2 was confirmed

Question: What about the “interaction with purified EZH2” value (purified EZH2) of the same molecule?
Answer: interaction with purified EZH2 (as described above) was confirmed

Question: Clc1ccc(-c2csc(NN=C3CCCC3)n2)cc1 [CPTH2] was tested. Which “NXTAR levels following (R)-9b treatment under GCN5 inhibition” value (NXTAR; 22Rv1 and LNCaP cells, CPTH2 in combination with (R)-9b) did it give?
Answer: severely compromised

Question: What about the “H3K14ac mark deposition at Ppr3 and Ppr4” value (NXTAR promoter) of the same molecule?
Answer: abrogated
